In patent publication US20260184663A1, “INDENE COMPOUNDS, PHARMACEUTICAL COMPOSITIONS THEREOF, AND THEIR THERAPEUTIC APPLICATIONS” (NucMito Pharmaceuticals co. Ltd., priority 2022, published 2026) one finds inhibition data, which are given here for four compounds.

Holding throughout (assay type): cell-based
In assay [1] the test system is B16F10 (malignant melanoma). As to the kind of experiment: Antiproliferative activity (CCK-8 cell viability), B16F10. The note with it: Mus musculus, 72 h, read-out: Antiproliferative activity in cancerous cells, B16F10 (inhibition of cell growth); for inhibition at 3.3 µM: B16-F10, Compound concentration: 3.3 μM; for inhibition at 10 µM: B16-F10, Compound concentration: 10 μM. Summed up:
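B16F10 melanoma cells grown in DMEM with 10% FBS were plated in 96-well plates at 2,000-5,000 cells/well. After attachment they were exposed to compound in medium for 72 h at 37° C. CCK-8 solution (10 μL) was then added, and after 4 h at 37° C absorbance was read at 450 nm.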

Assay [2] has as its system MDA-MB-231 (breast cancer). As to the kind of experiment: Antiproliferative activity (CCK-8 cell viability), MDA-MB-231. The conditions noted are these: Homo sapiens, 72 h, read-out: Antiproliferative activity in cancerous cells, MDA-MB-231 (inhibition of cell growth); for inhibition at 3.3 µM: Compound concentration: 3.3 μM; for inhibition at 10 µM: Compound concentration: 10 μM. Summed up: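 MDA-MB-231 breast cancer cells, grown in DMEM with 10% FBS, were plated in 96-well plates at 2,000-5,000 cells/well. Once attached, they were exposed to compound and incubated at 37° C. for 72 h. Viability was then measured with CCK-8 (10 μL per well, 4 h at 37° C.) by absorbance at 450 nm, relative to DMSO vehicle wells.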

The subject of a further assay is HepG2 (liver cancer). As to the kind of experiment: Antiproliferative activity (CCK-8 cell viability), HepG2. The conditions noted are these: Homo sapiens, 72 h, read-out: Antiproliferative activity in cancerous cells, HepG2 (inhibition of cell growth); for inhibition at 3.3 µM: Compound concentration: 3.3 μM; for inhibition at 10 µM: Compound concentration: 10 μM. Summed up: (§1)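 Cells grown in DMEM (HepG2, SW480), MEM (HeLa) or F-12K (A549), each with 10% FBS, then exposed to compound at 3.3, 10 or 30 μM for 72 h at 37 °C. CCK-8 absorbance at 450 nm; viability expressed as percent of DMSO-treated cells, graded as growth inhibition bands.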

The test system of assay [3] is A549 (lung adenocarcinoma). As to the kind of experiment: Antiproliferative activity (CCK-8 cell viability), A549. The note with it: Homo sapiens, 72 h, read-out: Antiproliferative activity in cancerous cells, A549 (inhibition of cell growth); for inhibition at 3.3 µM: Compound concentration: 3.3 μM; for inhibition at 10 µM: Compound concentration: 10 μM. Summed up: as §1

For another assay, the system named is HeLa (cervical cancer). As to the kind of experiment: Antiproliferative activity (CCK-8 cell viability), HeLa. The conditions noted are these: Homo sapiens, 72 h, read-out: Antiproliferative activity in cancerous cells, HELA (inhibition of cell growth); for inhibition at 3.3 µM: Compound concentration: 3.3 μM; for inhibition at 10 µM: Compound concentration: 10 μM. Summed up:
as §1

In the next assay the test system is SW480 (colon cancer). As to the kind of experiment: Antiproliferative activity (CCK-8 cell viability), SW480. The note with it: Homo sapiens, 72 h, read-out: Antiproliferative activity in cancerous cells, SW480 (inhibition of cell growth); for inhibition at 3.3 µM: Compound concentration: 3.3 μM; for inhibition at 10 µM: Compound concentration: 10 μM. Summed up:
as §1

Assay [4] relates to alpha-smooth muscle actin (α-SMA). As to the kind of experiment: Inhibition of TGF-β induced expression of alpha-smooth muscle actin (α-SMA) in CFSC cells (western blot). The conditions noted are these: compound at 10 μM, TGF-β (10 ng/mL), 24 hours, band intensity vs TGF-β only. The procedure: The ability of a compound to inhabit the TGF-β induced expression of alpha-smooth muscle actin (α-SMA) was evaluated in CCl4-treated fat storing (CFSC) cells. α-SMA is considered as a reliable marker of hepatic stellate cell activation and a key biomarker for liver fibrosis.
CFSC cells maintained in a DMEM medium supplemented with 10% fetal bovine serum were seeded to 12-well culture dishes and grown to a confluence of 60-70% the next day. Culture was changed to a serum-free DMEM medium, and the cells were treated with a compound at 10 μM in the presence of TGF-β (10 ng/mL). The cells were incubated for another 24 hours. All culture was maintained at 37° C. in 5% carbon dioxide.
An NP-40 lysate solution (50 mM Tris (pH 7.4), 150 mM NaCl, 1% NP-40) with EDTA free cocktail added was used to lyse the cells on ice for 30 min. The lysate was collected and centrifuged at 4° C. for 10 min at 12,000 rpm. The pellet was discarded and the supernatant was transferred to a new tube. Cell lysates were loaded with 5× loading buffer and boiled for 10 min, resolved by 10% SDS-polyacrylamide gel electrophoresis (SDS-PAGE), and transferred to PVDF membrane. The membrane was blocked with 5% skim milk in Tris-buffered saline and TWEEN® 20 (TBST; 10 mM Tris-HCl (pH 8.0), 150 mM NaCl, 0.1% TWEEN® 20) for 1 h at room temperature and then incubated with α-SMA and β-actin antibodies overnight at 4° C. After washing twice with TBST, the membrane was probed with a horseradish […] anti-immunoglobulin (1:5000 dilution) for 1 h at room temperature. After two subsequent rinses in TBST, immunoreactive products were reacted with ECL and visualized by a UVP CHEMSTUDIO™ imaging system. The western blotting bands are quantitated using an ImageJ software. The percentage of inhibition was obtained by calculating the percentage decrease in the band intensity compared to the one treated with TGF-β only.
The results are summarized in Table 1, where A represents a value no less of 80% inhibition, B represents a value less than […] but no less than […], C represents a value less than 50% but no less than 30% inhibition, and D represents a value less than 30% inhibition with a compound at 10 μM.

In assay [5] the test system is A431 (epidermoid carcinoma). As to the kind of experiment: Antiproliferative activity (CCK-8 cell viability), A431. The note with it: Homo sapiens, 72 h, read-out: Antiproliferative activity in cancerous cells, A431 (inhibition of cell growth); for inhibition at 3.3 µM: A-431, Compound concentration: 3.3 μM; for inhibition at 10 µM: A-431, Compound concentration: 10 μM. An outline of the steps: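 A431 epidermoid carcinoma cells grown in DMEM with 10% FBS were plated at 2,000-5,000 cells/well in 96-well plates. After attachment they were exposed to compound at 3.3 μM, 10 μM, or 30 μM for 72 h at 37° C. Viability was then assessed by CCK-8 against DMSO vehicle-treated wells.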

As to `COc1ccc2c(c1)/C(=C\c1ccc(Oc3ccc(F)cc3)cc1)C(Cc1ccccc1)=C2CC(=O)O` [C27, (Z)-2-(2-Benzyl-1-(4-(4-fluorophenoxy)benzylidene)-6-methoxy-1H-inden-3-yl)-acetic acid], the inhibition at 3.3 µM in assay [1] is 30 to 50%; in assay [2] it was at least 50%; in the assay with HepG2 (liver cancer), at least 50%; in assay [3], at least 50%; in the assay on HeLa (cervical cancer), at least 50%; in the assay on SW480 (colon cancer), below 30%. Also, the inhibition at 3.3 µM in assay [5] is below 30%. Further, the inhibition at 10 µM (in assay [1]; in assay [2]; in the assay on HepG2 (liver cancer); in assay [3]; with HeLa (cervical cancer); in the assay on SW480 (colon cancer)) was at least 50% each time. The figures for the inhibition at 10 µM in assay [4] and in assay [5] were above 80% and at least 50%, respectively.

In the case of `CC1=C(CC(=O)NCCN(C)C)c2cc(F)ccc2/C1=C\c1ccc(Oc2ccc(F)cc2)cc1` [C38, (Z)-N-(2-(Dimethylamino)ethyl)-2-(5-fluoro-1-(4-(4-fluorophenoxy)benzylidene)-2-methyl-1H-inden-3-yl)acetamide], the inhibition at 3.3 µM in assay [1] was at least 50%; in assay [2], below 30%; in the assay with HepG2 (liver cancer) it was below 30%; in assay [3], at least 50%; with HeLa (cervical cancer), below 30%; with SW480 (colon cancer), below 30%. In assay [5], the inhibition at 3.3 µM is below 30%. In addition, the inhibition at 10 µM (in assay [1]; in assay [2]; in the assay with HepG2 (liver cancer); in assay [3]; with HeLa (cervical cancer); in the assay with SW480 (colon cancer)) was at least 50% each time. Further, the results for the inhibition at 10 µM in assay [4] and in assay [5] were above 80% and at least 50%, respectively.

In the case of `CC1=C(CC(=O)O)c2ccc(F)c(F)c2/C1=C/c1ccc(Oc2ccc(F)cc2)cc1` [E3, (E)-2-(6,7-Difluoro-1-(4-(4-fluorophenoxy)benzylidene)-2-methyl-1H-inden-3-yl)acetic acid], the inhibition at 3.3 µM is 30 to 50% in assay [1]; at least 50% in assay [2]; at least 50% with HepG2 (liver cancer); 30 to 50% in assay [3]; at least 50% with HeLa (cervical cancer); 30 to 50% with SW480 (colon cancer). For the same compound, the inhibition at 3.3 µM in assay [5] is at least 50%. In addition, the inhibition at 10 µM (in assay [1]; in assay [2]; with HepG2 (liver cancer); in assay [3]; in the assay with HeLa (cervical cancer); in the assay with SW480 (colon cancer)) was at least 50% in each case. Further, the inhibition at 10 µM in assay [4] is above 80%; in assay [5] it was at least 50%. Further, the inhibition at 30 µM in assay [1] (B16-F10, Compound concentration: 30 μM) was at least 50%; in assay [2] (Compound concentration: 30 μM), at least 50%; with HepG2 (liver cancer) (Compound concentration: 30 μM) it was at least 50%; in assay [3] (Compound concentration: 30 μM), at least 50%; in the assay with HeLa (cervical cancer) (Compound concentration: 30 μM), at least 50%; in the assay with SW480 (colon cancer) (Compound concentration: 30 μM) it was at least 50%. Also, the inhibition at 30 µM in assay [5] (A-431, Compound concentration: 30 μM) was at least 50%.

`O=C(O)CC1=C(Cc2ccc(C(F)(F)F)cc2)/C(=C/c2ccc(Oc3ccc(F)cc3)cc2)c2ccc(F)cc21` [C11, (Z)-2-(5-Fluoro-1-(4-(4-fluorophenoxy)benzylidene)-2-(4-(trifluoromethyl)-benzyl)-1H-inden-3-yl)acetic acid]: the inhibition at 3.3 µM (in assay [1]; in assay [2]; with HepG2 (liver cancer); in assay [3]; in the assay on HeLa (cervical cancer); with SW480 (colon cancer)) was at least 50% in each case. In assay [5], the inhibition at 3.3 µM was at least 50%. Also, the inhibition at 10 µM (in assay [1]; in assay [2]; with HepG2 (liver cancer); in assay [3]; with HeLa (cervical cancer); with SW480 (colon cancer)) was at least 50% throughout. Moreover, the figures for the inhibition at 10 µM in assay [4] and in assay [5] were above 80% and at least 50%, respectively.

In general, inhibition refers to how much of the control response was suppressed.
